Measured values published in patent publication US20240350536A1, “Application of Bi-Phenols in Anti-ototoxicity and Hearing Protection” (Northwestern University, priority 2017, published 2024).
Entries after “also recorded” stand apart in the source; their conditions may differ. Like-named read-outs stand apart in the source and are kept apart here.

Experiments:
[1] = tested on: prostate cancer cells (C4-2B); test: Survival of prostate cancer cells with cisplatin and honokiol; assay type: cell-based
Protocol: (§1) FIG. 10. […] C: cisplatin; H: honokiol. […] Each treatment was repeated in triplets. The data were normalized by the number of untreated control (C0H0).
(§2) Because the role of SIRT3 may be different in different cancers, we selected three (3) different cancer cells for testing: prostate cancer cells, cervical cancer cells, and colon cancer cells. (See FIG. 10). Cisplatin was administered to the cancer cell lines with honokiol.

colon cancer cells = test: Survival of colon cancer cells with cisplatin and honokiol; assay type: cell-based
Protocol: as §1, §2

[2] = Weight loss and animal survival in cisplatin-treated mice; assay type: in vivo
Description: (See FIG. 15). […] (See FIG. 15). […] (See FIG. 15A). […] (See FIG. 15B).

cervical cancer cells = test: Survival of cervical cancer cells with cisplatin and honokiol; assay type: cell-based
Protocol: as §1, §2

outer hair cells (OHC) = test: Immunofluorescent histochemistry and confocal imaging of cochlear whole mount; assay type: in vivo, mice
Description: FIG. 13. Confocal images of the immunostaining (merged) of cochleae treated with Cis 15 (A) and Cis 15+HNK 20 (B) mg/kg, under 20× objectives.
FIG. 14. High-resolution confocal images (60× […]) of cochleae treated with Cis 15 (Left) and Cis 15+HNK 20 (Right), taken at the locations marked by white squares in FIGS. 13A and B, respectively. The white arrows indicate the nuclei of the remaining OHCs and the hollow arrows indicate missing OHCs. Note the panels for hair bundles (phalloidin staining) might be off focus and are only for indicating the correct position of the bodies and nuclei of the OHCs.
Immunofluorescent histochemistry (IFHC) of a cochlear whole mount was performed after the physiological studies described above using prestin antibody (for outer hair cells (OHC)), phalloidin (for hair bundle) and 4′,6-diamidino-2-phenylindole (DAPI) (for nuclei). […] (See FIG. 14A). HC loss can be indicated by the scarcity of remaining nuclei (white arrows).

[3] = tested on: outer hair cell (OHC) function; assay type: in vivo, mice
Protocol: FIG. 12A-12E. HNK protection against cisplatin-induced changes of DPOAE amplitude. […] The DPOAE shift, normalized to Day 0, of all the groups are plotted in (FIG. 12B to FIG. 12E). […] The results of the 2 animals in Cis 15 mg/kg group on Day 14 were both plotted in (FIG. 12B) as the dashed lines and open circles. […].
Distortion product oto-acoustic emissions (DPOAEs), which are an indication of outer hair cell (OHC) function, were measured in a separate series of experiments to estimate OHC protection by honokiol (HNK). (See FIG. 12A-12E). […] (See FIGS. 12D and 12E). After pre-treatment with HNK at a dosage of 10 mg/kg, the DPOAE shift was observed only at frequencies of 27 kHz and higher with a much smaller amplitude. (See FIG. 12D).

HEI-OC1 cells = tested on: HEI-OC1 cells
Description: FIG. 9. […] The data were normalized to the number of cells in the negative control (C0H0).
(§3) (See FIG. 9). […] (See FIG. 9). […] (See FIG. 9).

[4] = tested on: SIRT3, Caspase 3, PARP in HEI-OC1 cells; test: Western blot of SIRT3 and apoptosis-related proteins in HEI-OC1 cells; assay type: cell-based, mouse
Protocol: FIG. 9. […] (A) C: cisplatin; H: HNK. […] Cisplatin and honokiol were added simultaneously.
as §3

[5] = literature statement, cited from earlier work
mice = test: Auditory Brainstem Response (ABR) threshold shift in cisplatin-treated mice; assay type: in vivo
Description: Average=256. The error bars of all data points are standard deviations.

[6] = honokiol co-administered with cisplatin
[7] = cisplatin with honokiol pre-treatment

In the case of `N.N.[Cl][Pt][Cl]` [cisplatin, reference compound], the “loss of prostate cancer cells” value ([1]; cisplatin 50 μM or 100 μM) is reported as “massive loss”, the “loss of colon cancer cells” value (colon cancer cells; cisplatin 100 μM) is reported as “massive loss” and the survival rate ([2]; cisplatin 20 mg/kg, day 8) is reported as “zero”. The “reduction in cervical cancer cells” value (cervical cancer cells; cisplatin 50 μM or 100 μM) was “mild reduction”, the “OHC organization and HC loss” value (outer hair cells (OHC); Cis 15 mg/kg, basal 1/3 of the cochlea (estimated over 22 kHz)) was “Significant disruption of OHC organization and HC loss” and the “DPOAE amplitude at high frequencies” value ([3]; mouse, in vivo) was “reduced”. The “frequencies of apparent DPOAE amplitude drop” value ([3]; mouse, in vivo) was “over 16 kHz”.
With `C=CCc1ccc(O)c(-c2ccc(O)c(CC=C)c2)c1` [honokiol, 2-(4-hydroxy-3-prop-2-enyl-phenyl)-4-prop-2-enyl-phenol] the cell toxicity (HEI-OC1 cells) was “no cell toxicity”, the “HEI-OC1 apoptosis induced by cisplatin” value (HEI-OC1 cells; 10 μM HNK, 50 μM cisplatin, 24 hours, preliminary study) was “completely prevent” and the “protection against high dose cisplatin ototoxicity” value (HEI-OC1 cells; HNK 10 μM, cisplatin 50 μM) was about 100%. The “protection of HEI-OC1 cells against cisplatin-induced cell loss” value (HEI-OC1 cells; honokiol 5 μM or 10 μM, cisplatin 50 μM or 100 μM) was “protect”, the “prostate cancer cell (C4-2B) death from cisplatin treatment” value ([1]; HNK up to 25 μM, 50 μM cisplatin, preliminary data) was “did not prevent” and the “protection of prostate cancer cells from the toxicity of cisplatin” value [1, 6] was “not observed to protect”. The SIRT3 expression level ([4]; HEI-OC1, HNK with cisplatin, 24 hours after cisplatin treatment, listed as HNK) was “increased; also recorded: elevated”, the DNA damage ([4]; HEI-OC1, cisplatin in the presence of HNK, pilot studies) was “diminished” and the “cleavage of poly ADP ribose polymerase (PARP)” value ([4]; HEI-OC1, honokiol) was “decrease”. For the same compound, the “expression of Caspase 3” value ([4]; HEI-OC1, honokiol) was “decrease”, the “expression of SIRT3” value ([4]; HEI-OC1, increasing concentrations of honokiol) was “increase” and the “expression of early apoptosis mark caspase-3” value ([4]; HEI-OC1 co-treated with HNK and cisplatin versus cisplatin alone, pilot studies) was “higher in some cells”. For the same compound, the “effect with cisplatin on colon cancer cells” value (colon cancer cells; honokiol 10 μM or 25 μM, cisplatin 50 μM) was “synergistic effect”, the “protection of colon cancer cells from the toxicity of cisplatin” value (colon cancer cells; [6]) was “not observed to protect” and the “passage of the blood-brain barrier” value [5] was “capable of passing the blood-brain barrier”. For the same compound, the “passage of the blood-brain barrier” value ([5]; listed as HNK) was “can also cross the blood brain barrier; also recorded: permeable; also recorded: can pass through the blood-brain barrier”, the “TS in tonal ABR at the highest frequency (32 kHz)” value (mice; HNK 10 mg/kg and cisplatin 15 mg/kg) was “significant TS” and the “TS at other frequencies and dose combinations” value (mice; HNK 10-20 mg/kg, cisplatin 15-20 mg/kg) was “No further significant TS”. For the same compound, the “ABR TS induced by cisplatin” value (mice; mice pre-treated with HNK) was “decreased significantly”, the maximum weight loss ([2]; cisplatin 15 mg/kg with honokiol) was “about 15%” and the animals lost ([2]; cisplatin 20 mg/kg with honokiol) was 20%. For the same compound, the “survival rate / animal loss” value [2, 7] was “significantly reduced; also recorded: improved significantly”, the weight loss [2, 7] was “significantly reduced; also recorded: largely improved” and the “effect with cisplatin on cervical cancer cells” value (cervical cancer cells; honokiol 25 μM, cisplatin 50 μM (C50H25)) was “synergistic effect”. For the same compound, the “protection of cervical cancer cells from the toxicity of cisplatin” value (cervical cancer cells; [6]) was “not observed to protect”, the OHC structure (outer hair cells (OHC); Cis 15 + HNK 20 mg/kg, up to the 40 kHz region, only sporadic loss of HCs) was “nearly intact OHC structure” and the DPOAE amplitude changes ([3]; mice pre-treated with HNK, cisplatin 15 mg/kg) was “less pronounced”.
